Measured values published in ChEMBL document CHEMBL5584313, “Design and Synthesis of 7-Oxabicyclo[2.2.1]heptane-2,3-dicarboxylic Acid Derivatives as PP5 Inhibitors To Reverse Temozolomide Resistance in Glioblastoma Multiforme” (J Med Chem, 2024).
Activity calls are given as the source filed them. No cut-off for these calls is given here.

Key:
[1] = test system: U-87 MG; experiment: Induction of apoptosis in human U-87 MG cells assessed as S phase cells at 25 uM incubated for 24 hrs in presence of TMZ by propidium iodide staining based flow cytometry analysis (reference value: 29.4%); assay type: functional, U-87MG ATCC
[2] = test system: U-87 MG; experiment: Induction of apoptosis in human U-87 MG cells assessed as S phase cells at 25 uM incubated for 24 hrs by propidium iodide staining based flow cytometry analysis (reference value: 29.4%); assay type: functional, U-87MG ATCC
[3] = test system: U-87 MG; experiment: Cytotoxicity against human U-87 MG cells incubated for 48 hrs by CCK8 assay; assay type: functional, cell-based, U-87MG ATCC
[4] = test system: U-87 MG; experiment: Induction of apoptosis in human U-87 MG cells assessed as G0/G1 phase cells at 25 uM incubated for 24 hrs in presence of TMZ by propidium iodide staining based flow cytometry analysis (reference value: 58.8%); assay type: functional, U-87MG ATCC
[5] = test system: U-87 MG; experiment: Antitumor activity against human U-87 MG cells xenografted in BALB/c nude mouse assessed as tumor growth retardation at 40 mg/kg, po administered every other day for 18 days; assay type: functional, organism-based; conditions: U-87MG ATCC, time 18.0 day
[6] = test system: U-87 MG; experiment: Induction of apoptosis in human U-87 MG cells assessed as G2/M phase cells at 25 uM incubated for 24 hrs in presence of TMZ by propidium iodide staining based flow cytometry analysis (reference value: 11.9%); assay type: functional, U-87MG ATCC
[7] = test system: U-87 MG; experiment: Induction of apoptosis in human U-87 MG cells assessed as G0/G1 phase cells at 25 uM incubated for 24 hrs by propidium iodide staining based flow cytometry analysis (reference value: 58.8%); assay type: functional, U-87MG ATCC
[8] = test system: U-87 MG; experiment: Induction of apoptosis in human U-87 MG cells assessed as G2/M phase cells at 25 uM incubated for 24 hrs by propidium iodide staining based flow cytometry analysis (reference value: 11.9%); assay type: functional, U-87MG ATCC
[9] = test system: HCT-116; experiment: Cytotoxicity against human HCT-116 cells incubated for 48 hrs by CCK8 assay; assay type: functional, cell-based; conditions: HCT-116, 48 h
[10] = Cytotoxicity against HEK293T cells incubated for 48 hrs by CCK8 assay; assay type: toxicity, cell-based, HEK-293T; conditions: human
[11] = Cytotoxicity against HUVECs incubated for 48 hrs by CCK8 assay; assay type: toxicity, cell-based; conditions: human, HUVEC cells
[12] = test system: U-87 MG; experiment: Induction of apoptosis in human U-87 MG cells assessed as G0/G1 phase cells at 5 uM incubated for 24 hrs by propidium iodide staining based flow cytometry analysis (reference value: 58.8%); assay type: functional, U-87MG ATCC
[13] = species on record: Homo sapiens; experiment: Selectivity ratio of IC50 for PP2A (unknown origin ) to IC50 for PP5 (unknown origin)
[14] = Inhibition of bovine PP2A using [32P]-phosphohistone as substrate preincubated for 10 mins followed by substrate addition; parameters: species or system Bos taurus
[15] = Aqueous stability of compound assessed as compound remaining measured at 240 mins by HPLC assay; assay type: physicochemical; conditions: aqueous solution, read-out: Stability
[16] = Stability of compound in water assessed as remaining compound after 24 hrs; assay type: physicochemical; conditions: read-out: Stability
[17] = Aqueous stability of compound assessed as compound remaining measured at 480 mins by HPLC assay; assay type: physicochemical; conditions: aqueous solution, read-out: Stability
[18] = test system: U-87MG ATCC; experiment: Downregulation of cyclin D1 expression in human U-87 MG cells at 25 uM incubated for 24 hrs in presence TMZ by Western blotting analysis; assay type: functional, cell-based
[19] = test system: A549; experiment: Cytotoxicity against human A549 cells incubated for 48 hrs by CCK8 assay; assay type: functional, cell-based; conditions: A549, 48 h
[20] = Aqueous stability of compound assessed as compound remaining measured at 30 mins by HPLC assay; assay type: physicochemical; conditions: aqueous solution, read-out: Stability
[21] = Toxicity in BALB/c nude mouse xenografted with U-87 MG cells assessed as kidney damage at 3 mg/kg, po administered every other day for 18 days in presence of 40 mg/kg TMZ by H and E staining based assay; assay type: organism-based; conditions: in vivo, 432 h, time 18 day
[22] = Aqueous stability of compound assessed as compound remaining measured at 10 mins by HPLC assay; assay type: physicochemical; conditions: aqueous solution, read-out: Stability
[23] = Aqueous stability of compound assessed as compound remaining measured at 60 mins by HPLC assay; assay type: physicochemical; conditions: aqueous solution, read-out: Stability
[24] = test system: U-87 MG; experiment: Induction of apoptosis in human U-87 MG cells assessed as S phase cells at 5 uM incubated for 24 hrs by propidium iodide staining based flow cytometry analysis (reference value: 29.4%); assay type: functional, U-87MG ATCC
[25] = Toxicity in BALB/c nude mouse xenografted with U-87 MG cells assessed as liver damage at 3 mg/kg, po administered every other day for 18 days in presence of 40 mg/kg TMZ by H and E staining based assay; assay type: organism-based; conditions: in vivo, 432 h, time 18 day
[26] = test system: U-87 MG; experiment: Antitumor activity against human U-87 MG cells xenografted in BALB/c nude mouse assessed as reduction in MGMT expression at 1.5 to 3 mg/kg, po measured after 4 hrs in presence of 40 mg/kg TMZ by Western blotting analysis; assay type: functional, organism-based; conditions: U-87MG ATCC, dose 1.5-3 mg/kg
[27] = Toxicity in BALB/c nude mouse xenografted with U-87 MG cells assessed as liver damage at 3 mg/kg, po administered every other day for 18 days by H and E staining based assay; assay type: organism-based; conditions: in vivo, 432 h, time 18 day
[28] = test system: U-87 MG; experiment: Antitumor activity against human U-87 MG cells xenografted in BALB/c nude mouse assessed as tumor growth inhibition at 3 mg/kg, po administered every other day for 18 days in presence of 40 mg/kg TMZ; assay type: functional, U-87MG ATCC; conditions: 432 h, time 18 day, read-out: TGI
[29] = Stability in mouse plasma assessed as half life measured upto 300 mins by LC-MS/MS analysis; assay type: ADME, cell-free
[30] = species on record: Homo sapiens; experiment: Selectivity ratio of IC50 for PP1 (unknown origin ) to IC50 for PP5 (unknown origin)
[31] = Inhibition of PP2A in human U-87 MG cell lysate using RRA(pT)VA as substrate; assay type: subcellular
[32] = Cytotoxicity against human BEAS-2B incubated for 48 hrs by CCK8 assay; assay type: toxicity, cell-based; conditions: BEAS-2B cells
[33] = Toxicity in BALB/c nude mouse xenografted with U-87 MG cells assessed as kidney damage at 3 mg/kg, po administered every other day for 18 days by H and E staining based assay; assay type: organism-based; conditions: in vivo, 432 h, time 18 day
[34] = biological target: T1, Serine/threonine-protein phosphatase 5 (Homo sapiens, UniProt P53041); experiment: Inhibition of human PPP5C (169 to 499 residues) expressed in Escherichia coli using [32P]-phosphohistone as substrate preincubated for 10 mins followed by substrate addition
T1 sequence (P53041 whole entry): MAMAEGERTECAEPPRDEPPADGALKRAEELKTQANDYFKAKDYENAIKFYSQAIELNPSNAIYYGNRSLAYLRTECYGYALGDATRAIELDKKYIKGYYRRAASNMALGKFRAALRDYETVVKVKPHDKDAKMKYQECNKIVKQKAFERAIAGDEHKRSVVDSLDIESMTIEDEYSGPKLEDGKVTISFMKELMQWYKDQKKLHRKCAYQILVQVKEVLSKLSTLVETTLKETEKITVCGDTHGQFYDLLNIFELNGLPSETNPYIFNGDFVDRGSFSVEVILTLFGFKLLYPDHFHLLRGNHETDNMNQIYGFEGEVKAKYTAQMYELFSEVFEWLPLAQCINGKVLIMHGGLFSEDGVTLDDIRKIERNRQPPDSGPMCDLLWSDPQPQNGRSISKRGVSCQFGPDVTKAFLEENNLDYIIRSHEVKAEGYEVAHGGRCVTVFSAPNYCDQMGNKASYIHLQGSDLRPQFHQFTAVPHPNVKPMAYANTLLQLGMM

[35] = Aqueous stability of compound assessed as compound remaining measured at 120 mins by HPLC assay; assay type: physicochemical; conditions: aqueous solution, read-out: Stability
[36] = test system: U-87 MG; experiment: Induction of apoptosis in human U-87 MG cells assessed as G2/M phase cells at 5 uM incubated for 24 hrs by propidium iodide staining based flow cytometry analysis (reference value: 11.9%); assay type: functional, U-87MG ATCC
[37] = test system: U-87MG ATCC; experiment: Upregulation of p53 expression in human U-87 MG cells at 6.25 to 100 uM after 24 hrs by Western blotting analysis; assay type: functional, cell-based; conditions: dose 6.25-100 µM
[38] = Inhibition of PP2A (unknown origin)

## Cn1nnc2c(C(N)=O)ncn2c1=O [TEMOZOLOMIDE]
[1]
  Activity: 69.6%
[2]
  Activity: 31.5%
[3]
  IC50: > 200 µM
[4]
  Activity: 37.7%
[5]
  Activity: Active
[6]
  Activity: 7.4%
[7]
  Activity: 54.5%
[8]
  Activity: 13.5%

## CN1CCN(C(=O)[C@@H]2[C@H](C(=O)O)[C@H]3CC[C@@H]2O3)CC1
[9]
  IC50: 10.1 µM
[10]
  IC50 at 48 h: 26.6 µM
[11]
  IC50 at 48 h: 9.7 µM
[12]
  Activity: 57.4%
[1]
  Activity: 11.8%
[13]
  Ratio IC50: 0.1
[14]
  IC50: 0.009 µM
[15]
  remaining at 4 h: 45.6%
[16]
  remaining at 24 h: 5.3%
[17]
  remaining at 8 h: 14%
[18]
  Activity: inactive
[19]
  IC50: 8.8 µM
[20]
  remaining at 0.5 h: 79%
[21]
  Activity: Toxic
[22]
  remaining at 10 min: 93%
[23]
  remaining at 1 h: 68%
[24]
  Activity: 28.4%
[25]
  Activity: Toxic
[26]
  Activity: inactive
[3]
  IC50: 25.6 µM
[4]
  Activity: 52.6%
[6]
  Activity: 22.9%
[27]
  Activity: Toxic
[28]
  inhibition in vivo at 3 mg/kg: 46.2%
[29]
  half-life: 5.03 h
[30]
  Ratio IC50: 0.7
[31]
  IC50: 1 µM
[32]
  IC50 at 48 h: 3.5 µM
[33]
  Activity: Toxic
[34]
  IC50: 3 µM
[35]
  remaining at 2 h: 50%
[36]
  Activity: 14.4%
[37]
  Activity: inactive

## O=C(O)[C@@H]1[C@H](C(=O)N2CCC2)[C@H]2CC[C@@H]1O2
[15]
  remaining at 4 h: 33.8%

## O=C1OC(=O)C2C3CCC(O3)C12 (stereo not drawn)
[38]
  IC50: 3 µM

## O=C(NC1CCCCC1)[C@@H]1[C@H](C(=O)O)[C@H]2CC[C@@H]1O2
[15]
  remaining at 4 h: 73.2%

## C[C@@]12C(=O)OC(=O)[C@]1(C)[C@H]1CC[C@@H]2O1 [CANTHARIDIN]
[38]
  IC50: 0.16 µM

## O=C(O)[C@@H]1[C@H](C(=O)NC2CCCC2)[C@H]2CC[C@@H]1O2
[15]
  remaining at 4 h: 72.2%

## O=C(O)[C@@H]1[C@H](C(=O)N2CCN(c3ccccc3)CC2)[C@H]2CC[C@@H]1O2
[15]
  remaining at 4 h: 93%

## O=C(NC1CCCC1)[C@@H]1[C@H](C(=O)O)[C@H]2CC[C@@H]1O2
[15]
  remaining at 4 h: 10.2%
